Measurements reported in the NIST ThermoML archive (doi:10.1021/acs.jced.8b00958).

Assay: mn = molality of the nth substance listed, in mol/kg
Details: 85 kPa, Liquid; for viscosity: Falling or rolling sphere viscometry; for speed of sound: Frequency=3 MHz, Single path-length method; for mass density: Vibrating tube method

O=C(CO)[C@@H](O)[C@H](O)[C@H](O)CO [D-fructose] + O
Details	mass density [kg/m3]	speed of sound [m/s]	viscosity [mPa·s]
288.15 K, m1 = 0.0498	1002.61	–	1.163
288.15 K, m1 = 0.1521	–	–	1.224
288.15 K, m1 = 0.2488	1016.24	1484.3	1.274
288.15 K, m1 = 0.3494	1022.9	1491.6	1.335
288.15 K, m1 = 0.4476	1029.24	1498.6	1.394
288.15 K, m1 = 0.5483	1035.58	–	1.465
288.15 K, m1 = 0.6491	1041.8	1512.6	1.529
298.15 K, m1 = 0.0498	1000.49	–	–
298.15 K, m1 = 0.1521	–	1506.7	0.964
298.15 K, m1 = 0.2488	1013.83	1513.1	0.993
298.15 K, m1 = 0.3494	1020.36	1519.4	1.038
298.15 K, m1 = 0.4476	1026.59	1525.6	1.08
298.15 K, m1 = 0.5483	1032.83	1532	1.133
298.15 K, m1 = 0.6491	1038.95	1538.4	1.178
308.15 K, m1 = 0.0498	997.41	–	–
308.15 K, m1 = 0.1521	1004.25	1528.8	0.774
308.15 K, m1 = 0.2488	–	1534.4	0.804
308.15 K, m1 = 0.3494	1016.98	1540.3	0.836
308.15 K, m1 = 0.4476	1023.1	1546	0.87
308.15 K, m1 = 0.5483	1029.27	1551.3	0.909
308.15 K, m1 = 0.6491	1035.3	1556.9	0.941
318.15 K, m1 = 0.0498	993.54	–	0.624
318.15 K, m1 = 0.1521	1000.27	–	0.648
318.15 K, m1 = 0.2488	–	1549.8	0.67
318.15 K, m1 = 0.3494	1012.8	1555	0.699
318.15 K, m1 = 0.4476	1018.84	1559.9	0.718
318.15 K, m1 = 0.5483	1024.89	1565.3	0.747
318.15 K, m1 = 0.6491	1030.8	1570.3	0.777
